Results reported in US20230151025A1, “SUBSTITUTED THIAZOLOPYRIDINES, SALTS THEREOF AND THEIR USE AS HERBICIDALLY ACTIVE SUBSTANCES” (Bayer Aktiengesellschaft, priority 2020, published 2023).

Assays:
Assay type in all cases: in vivo
[1] = system: Abutilon theophrasti (ABUTH); test: Herbicidal pre-emergence action (C), 320 g/ha; conditions: ca. 3 weeks
Procedure, shortened: (§1)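 Sandy loam pots, seeds covered with soil → WP/EC compound sprayed on soil surface (aq., +0.5% additive, 600 l/ha) → greenhouse, optimum growth → visual herbicidal effect (%) at ca. 3 wk vs untreated.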

[2] = system: Alopecurus myosuroides (ALOMY); test: Herbicidal pre-emergence action (C), 320 g/ha; conditions: ca. 3 weeks
Procedure, shortened: as §1

[3] = system: Amaranthus retroflexus (AMARE); test: Herbicidal pre-emergence action (C), 320 g/ha; conditions: ca. 3 weeks
Procedure, shortened: as §1

[4] = system: Echinochloa crus-galli (ECHCG); test: Herbicidal pre-emergence action (C), 320 g/ha; conditions: ca. 3 weeks
Procedure, shortened: as §1

Lolium rigidum (LOLRI) [5] = test: Herbicidal pre-emergence action (C), 320 g/ha; conditions: ca. 3 weeks
Procedure, shortened: as §1

[6] = system: Matricaria inodora (MATIN); test: Herbicidal pre-emergence action (C), 320 g/ha; conditions: ca. 3 weeks
Procedure, shortened: as §1

[7] = system: Polygonum convolvulus (POLCO); test: Herbicidal pre-emergence action (C), 320 g/ha; conditions: ca. 3 weeks
Procedure, shortened: as §1

Setaria viridis (SETVI) [8] = test: Herbicidal pre-emergence action (C), 320 g/ha; conditions: ca. 3 weeks
Procedure, shortened: as §1

Veronica persica (VERPE) [9] = test: Herbicidal pre-emergence action (C), 320 g/ha; conditions: ca. 3 weeks
Procedure, shortened: as §1

Viola tricolor (VIOTR) [10] = test: Herbicidal pre-emergence action (C), 320 g/ha; conditions: ca. 3 weeks
Procedure, shortened: as §1

Avena fatua [11] = test: Herbicidal pre-emergence action (C), 320 g/ha; conditions: ca. 3 weeks
Procedure, shortened: (§2)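 Weed and crop seeds sown in sandy loam; WP or EC formulations applied pre-emergence to the soil surface as aqueous suspension/emulsion with 0.5% additive at 600 l water/ha. Greenhouse-grown under optimum conditions; damage visually scored after ca. 3 weeks versus untreated controls (0% = as control, 100% = plants dead).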

[12] = system: Abutilon theophrasti (ABUTH); test: Herbicidal post-emergence action (D), 320 g/ha; conditions: ca. 3 weeks
Procedure, shortened: (§3)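 Post-emergence greenhouse test. Sandy loam; spray at single-leaf stage (2–3 wk after sowing); WP or EC in water + 0.5% additive, 600 l/ha. Visual rating ~3 wk post-spray, % effect vs untreated (0 = control, 100 = dead).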

[13] = system: Alopecurus myosuroides (ALOMY); test: Herbicidal post-emergence action (D), 320 g/ha; conditions: ca. 3 weeks
Procedure, shortened: as §3

[14] = system: Echinochloa crus-galli (ECHCG); test: Herbicidal post-emergence action (D), 320 g/ha; conditions: ca. 3 weeks
Procedure, shortened: as §3

Lolium rigidum (LOLRI) [15] = test: Herbicidal post-emergence action (D), 320 g/ha; conditions: ca. 3 weeks
Procedure, shortened: as §3

[16] = system: Polygonum convolvulus (POLCO); test: Herbicidal post-emergence action (D), 320 g/ha; conditions: ca. 3 weeks
Procedure, shortened: as §3

Setaria viridis (SETVI) [17] = test: Herbicidal post-emergence action (D), 320 g/ha; conditions: ca. 3 weeks
Procedure, shortened: as §3

Veronica persica (VERPE) [18] = test: Herbicidal post-emergence action (D), 320 g/ha; conditions: ca. 3 weeks
Procedure, shortened: as §3

Viola tricolor (VIOTR) [19] = test: Herbicidal post-emergence action (D), 320 g/ha; conditions: ca. 3 weeks
Procedure, shortened: as §3

Avena fatua [20] = test: Herbicidal post-emergence action (D), 320 g/ha; conditions: ca. 3 weeks
Text: (§4) Seeds of mono- and dicotyledonous weed plants and crop plants were sown, in plastic or organic planting pots, in sandy loam, covered with soil and grown in a greenhouse under controlled growth conditions. 2 to 3 weeks after sowing, the test plants were sprayed in the single-leaf stage. The compounds according to the invention, formulated in form of wettable powders (WP) or as emulsifiable concentrates (EC), were sprayed onto the green plant parts as aqueous suspension or emulsion, with the addition of 0.5% of an additive, at an application rate of 600 l of water/ha (converted). The test plants were placed in the greenhouse for ca. 3 weeks under optimum growth conditions, and then the effect of the preparations was assessed visually in comparison with untreated controls (herbicidal effect in percent (%): 100% effect=plants have died off, 0% effect=as control plants).
(§5) Tables D1 to D13 below show the effects of selected compounds of the general formula (I) according to table 1 on various harmful plants and an application rate corresponding to 320 g/ha obtained by the experimental procedure mentioned above.

Stellaria media (STEME) [21] = test: Herbicidal pre-emergence action (C), 320 g/ha; conditions: visual grading after ca. 3 weeks vs untreated controls, 100% = plants have died off, 0% = as control plants
Procedure, shortened: as §1

[22] = system: Digitaria sanguinalis (DIGSA); test: Herbicidal pre-emergence action (C), 320 g/ha; conditions: ca. 3 weeks
Procedure, shortened: as §2

[23] = system: Amaranthus retroflexus (AMARE); test: Herbicidal post-emergence action (D), 320 g/ha; conditions: ca. 3 weeks
Procedure, shortened: as §3

[24] = system: Matricaria inodora (MATIN); test: Herbicidal post-emergence action (D), 320 g/ha; conditions: single-leaf stage, assessed visually after ca. 3 weeks vs untreated controls, 100% = plants have died off, 0% = as control plants
Procedure, shortened: as §3

Stellaria media (STEME) [25] = test: Herbicidal post-emergence action (D), 320 g/ha; conditions: ca. 3 weeks
Procedure, shortened: as §3

[26] = system: Digitaria sanguinalis (DIGSA); test: Herbicidal post-emergence action (D), 320 g/ha; conditions: ca. 3 weeks
Text: as §4, §5

[27] = system: Alopecurus myosuroides (ALOMY); test: Herbicidal pre-emergence action (A), 1280 g/ha; conditions: visual grading after ca. 3 weeks vs untreated controls, 100% = plants have died off, 0% = as control plants
Procedure, shortened: (§6)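 Pre-emergence soil-surface spray, 600 l/ha water, 0.5% additive, WP or EC formulation. Sandy loam, double sowing per pot, greenhouse under optimum growth. Visual % damage at ~3 wk vs untreated; 100% = plants died off.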

[28] = system: Echinochloa crus-galli (ECHCG); test: Herbicidal pre-emergence action (A), 1280 g/ha; conditions: visual grading after ca. 3 weeks vs untreated controls, 100% = plants have died off, 0% = as control plants
Procedure, shortened: as §6

[29] = system: Kochia scoparia (KCHSC; Bassia scoparia); test: Herbicidal pre-emergence action (A), 1280 g/ha; conditions: visual grading after ca. 3 weeks vs untreated controls
Procedure, shortened: as §6

Lolium rigidum (LOLRI) [30] = test: Herbicidal pre-emergence action (A), 1280 g/ha; conditions: visual grading after ca. 3 weeks vs untreated controls, 100% = plants have died off, 0% = as control plants
Procedure, shortened: as §6

[31] = system: Matricaria inodora (MATIN); test: Herbicidal pre-emergence action (A), 1280 g/ha; conditions: visual grading after ca. 3 weeks vs untreated controls
Procedure, shortened: as §6

Poa annua (POAAN) [32] = test: Herbicidal pre-emergence action (A), 1280 g/ha; conditions: visual grading after ca. 3 weeks vs untreated controls, 100% = plants have died off, 0% = as control plants
Procedure, shortened: as §6

Setaria viridis (SETVI) [33] = test: Herbicidal pre-emergence action (A), 1280 g/ha; conditions: visual grading after ca. 3 weeks vs untreated controls
Procedure, shortened: as §6

Stellaria media (STEME) [34] = test: Herbicidal pre-emergence action (A), 1280 g/ha; conditions: visual grading after ca. 3 weeks vs untreated controls
Procedure, shortened: as §6

Veronica persica (VERPE) [35] = test: Herbicidal pre-emergence action (A), 1280 g/ha; conditions: visual grading after ca. 3 weeks vs untreated controls
Procedure, shortened: as §6

[36] = system: Abutilon theophrasti (ABUTH); test: Herbicidal post-emergence action (B), 1280 g/ha; conditions: rated visually after about 3 weeks vs untreated controls
Procedure, shortened: (§7)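 Percent activity is a visual score taken about 3 weeks after treatment, relative to untreated plants, where 100% means the plants died and 0% means no difference from controls. Plants were sprayed on green parts at the one-leaf stage with an aqueous suspension or emulsion containing 0.5% additive at 600 L/ha.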

[37] = system: Alopecurus myosuroides (ALOMY); test: Herbicidal post-emergence action (B), 1280 g/ha; conditions: rated visually after about 3 weeks vs untreated controls
Procedure, shortened: as §7

[38] = system: Amaranthus retroflexus (AMARE); test: Herbicidal post-emergence action (B), 1280 g/ha; conditions: rated visually after about 3 weeks vs untreated controls
Procedure, shortened: as §7

[39] = system: Echinochloa crus-galli (ECHCG); test: Herbicidal post-emergence action (B), 1280 g/ha; conditions: rated visually after about 3 weeks vs untreated controls
Procedure, shortened: as §7

[40] = system: Kochia scoparia (KCHSC; Bassia scoparia); test: Herbicidal post-emergence action (B), 1280 g/ha
Procedure, shortened: as §7

Poa annua (POAAN) [41] = test: Herbicidal post-emergence action (B), 1280 g/ha; conditions: rated visually after about 3 weeks vs untreated controls
Procedure, shortened: as §7

Stellaria media (STEME) [42] = test: Herbicidal post-emergence action (B), 1280 g/ha
Procedure, shortened: as §7

Veronica persica (VERPE) [43] = test: Herbicidal post-emergence action (B), 1280 g/ha
Procedure, shortened: as §7

Compound | herbicidal effect ABUTH [1] [%] | herbicidal effect ALOMY [2] [%] | herbicidal effect AMARE [3] [%] | herbicidal effect ECHCG [4] [%] | herbicidal effect LOLRI (Lolium rigidum (LOLRI) [5]) [%] | herbicidal effect MATIN [6] [%] | herbicidal effect POLCO [7] [%] | herbicidal effect SETVI (Setaria viridis (SETVI) [8]) [%] | herbicidal effect VERPE (Veronica persica (VERPE) [9]) [%] | herbicidal effect VIOTR (Viola tricolor (VIOTR) [10]) [%] | herbicidal effect AVEFA (Avena fatua [11]) [%] | herbicidal effect ABUTH [12] [%] | herbicidal effect ALOMY [13] [%] | herbicidal effect ECHCG [14] [%] | herbicidal effect LOLRI (Lolium rigidum (LOLRI) [15]) [%] | herbicidal effect POLCO [16] [%] | herbicidal effect SETVI (Setaria viridis (SETVI) [17]) [%] | herbicidal effect VERPE (Veronica persica (VERPE) [18]) [%] | herbicidal effect VIOTR (Viola tricolor (VIOTR) [19]) [%] | herbicidal effect AVEFA (Avena fatua [20]) [%] | also measured
Fc1cccc(F)c1-c1nc2ncsc2cc1Cl [Example I-087] | 90 | 100 | 80 | 100 | 100 | 90 | 90 | 100 | 90 | 80 | 80 | 80 | 90 | 90 | 80 | 90 | 90 | 90 | 80 | 80 | 
Cc1cc2scnc2nc1-c1ccccc1F [Example I-002] | 90 | 100 | 90 | 100 | 100 | 90 | 90 | 100 | 90 | 80 | 100 | 80 | 90 | 100 | 80 | 90 | 90 | 80 | 80 | 80 | STEME, herbicidal effect in percent (%) (Stellaria media (STEME) [21]): 90%; herbicidal effect DIGSA [22]: 100%; herbicidal effect AMARE [23]: 90%; MATIN, herbicidal effect in percent (%) [24]: 80%; herbicidal effect STEME (Stellaria media (STEME) [25]): 90%; herbicidal effect DIGSA [26]: 90%
Cc1ccccc1-c1nc2ncsc2cc1C [Example I-018] | 80 | 100 | 90 | 100 | 100 | 90 | 90 | 100 | 90 |  |  |  | 90 |  |  | 100 | 80 | 80 | 90 |  | herbicidal effect DIGSA [22]: 100%; herbicidal effect AMARE [23]: 90%; herbicidal effect DIGSA [26]: 90%
Cc1ccsc1-c1nc2ncsc2cc1Cl [Example I-192] |  | 100 | 100 | 100 | 100 |  |  | 100 | 90 |  |  |  | 90 | 100 |  |  | 80 | 80 |  | 80 | ALOMY, herbicidal effect in percent (%) [27]: 100%; ECHCG, herbicidal effect in percent (%) [28]: 100%; herbicidal effect KCHSC [29]: 100%; LOLRI, herbicidal effect in percent (%) (Lolium rigidum (LOLRI) [30]): 100%; herbicidal effect MATIN [31]: 100%; POAAN, herbicidal effect in percent (%) (Poa annua (POAAN) [32]): 100%; herbicidal effect SETVI (Setaria viridis (SETVI) [33]): 100%; herbicidal effect STEME (Stellaria media (STEME) [34]): 100%; herbicidal effect VERPE (Veronica persica (VERPE) [35]): 90%; herbicidal activity ABUTH [36]: 100%; herbicidal activity ALOMY [37]: 100%; herbicidal activity AMARE [38]: 100%; herbicidal activity ECHCG [39]: 100%; herbicidal effect KCHSC [40]: 90%; herbicidal activity POAAN (Poa annua (POAAN) [41]): 90%; herbicidal effect STEME (Stellaria media (STEME) [42]): 90%; herbicidal effect VERPE (Veronica persica (VERPE) [43]): 100%
